Results from ChEMBL document CHEMBL4024712, “Synthesis, stability and mechanistic studies of potent anticryptococcal hexapeptides” (Eur J Med Chem, 2017).
≈ marks a conversion by molar mass, not a printed value. Non-standard residues stand in square brackets, D forms with d. Residues, ends and D or L forms follow the SMILES beside them. His(τ-Bzl) = N[C@@H](Cc1cn(Cc2ccccc2)cn1)C(=O)O; Phe(4-NH2) = Nc1ccc(C[C@H](N)C(=O)O)cc1; Phe(4-Me) = Cc1ccc(C[C@H](N)C(=O)O)cc1; 1Nal = N[C@@H](Cc1cccc2ccccc12)C(=O)O; Cha = N[C@@H](CC1CCCCC1)C(=O)O; dOrn = NCCC[C@@H](N)C(=O)O; Orn = NCCC[C@H](N)C(=O)O; Dab = NCC[C@H](N)C(=O)O

How the values were obtained:
Cryptococcus neoformans [1] = experiment: Fungicidal activity against Cryptococcus neoformans ATCC 90113 after 68 to 72 hrs by Alamar blue assay; assay type: functional
Staphylococcus aureus [2] = experiment: Bactericidal activity against methicillin-resistant Staphylococcus aureus ATCC 33591 by CLSI method; assay type: functional
Staphylococcus aureus [3] = experiment: Anti-bacterial activity against Staphylococcus aureus ATCC 29213 by CLSI method; assay type: functional
Staphylococcus aureus [4] = experiment: Bactericidal activity against Staphylococcus aureus ATCC 29213 by CLSI method; assay type: functional
Candida albicans [5] = experiment: Antifungal activity against Candida albicans ATCC 90028 after 18 to 24 hrs by Alamar blue assay; assay type: functional
Nakaseomyces glabratus = experiment: Antifungal activity against Candida glabrata ATCC 90030 after 18 to 24 hrs by Alamar blue assay; assay type: functional
Pichia kudriavzevii [6] = experiment: Fungicidal activity against Candida krusei ATCC 6258 after 18 to 24 hrs by Alamar blue assay; assay type: functional
Aspergillus fumigatus = experiment: Antifungal activity against Aspergillus fumigatus ATCC 90906 after 68 to 72 hrs by Alamar blue assay; assay type: functional
[7] = tested on: Mycobacterium intracellulare; experiment: Anti-bacterial activity against Mycobacterium intracellulare ATCC 23068 after 68 to 72 hrs by Alamar blue assay; assay type: functional, cell-based
Escherichia coli [8] = experiment: Anti-bacterial activity against Escherichia coli ATCC 35218 by CLSI method; assay type: functional
Escherichia coli [9] = experiment: Bactericidal activity against Escherichia coli ATCC 35218 by CLSI method; assay type: functional
Pseudomonas aeruginosa = experiment: Anti-bacterial activity against Pseudomonas aeruginosa ATCC 27853 by CLSI method; assay type: functional
Vero = experiment: Cytotoxicity against African green monkey Vero cells up to 10 ug/ml after 48 hrs by neutral red dye based assay; assay type: cell-based; conditions: chlorocebus sabaeus
Pichia kudriavzevii [10] = experiment: Antifungal activity against Candida krusei ATCC 6258 after 18 to 24 hrs by Alamar blue assay; assay type: functional
Cryptococcus neoformans [11] = experiment: Antifungal activity against Cryptococcus neoformans ATCC 90113 after 68 to 72 hrs by Alamar blue assay; assay type: functional
Candida albicans [12] = experiment: Fungicidal activity against Candida albicans ATCC 90028 after 18 to 24 hrs by Alamar blue assay; assay type: functional
Staphylococcus aureus [13] = experiment: Anti-bacterial activity against methicillin-resistant Staphylococcus aureus ATCC 33591 by CLSI method; assay type: functional
[14] = Staphylococcus aureus, ATCC 29213
[15] = Pichia kudriavzevii, ATCC 6258, read-out: IC50
[16] = Staphylococcus aureus, ATCC 33591, read-out: IC50
[17] = Staphylococcus aureus, ATCC 29213, read-out: IC50
[18] = Escherichia coli, ATCC 35218, read-out: IC50

SMILES	MFC (Cryptococcus neoformans [1]) [µg/mL]	MBC (Staphylococcus aureus [2]) [µg/mL]	MIC (Staphylococcus aureus [3]; [14]) [µg/mL]	MBC (Staphylococcus aureus [4]) [µg/mL]	IC50 (Candida albicans [5])	IC50 (Nakaseomyces glabratus)	MFC (Pichia kudriavzevii [6]) [µg/mL]	IC50 (Aspergillus fumigatus)	IC50 [7]	MIC (Escherichia coli [8]; Escherichia coli, ATCC 35218) [µg/mL]	MBC (Escherichia coli [9]) [µg/mL]	IC50 (Pseudomonas aeruginosa)	Activity (Vero)	MIC (Pichia kudriavzevii [10]; Pichia kudriavzevii, ATCC 6258) [µg/mL]	MIC (Cryptococcus neoformans [11]) [µg/mL]	IC50 (Escherichia coli [8])	IC50 (Cryptococcus neoformans [11]) [µg/mL]	IC50 (Pichia kudriavzevii [10]; [15]) [µg/mL]	IC50 (Staphylococcus aureus [13]; [16]) [µg/mL]	IC50 (Staphylococcus aureus [3]; [17]) [µg/mL]	other results
Cc1ccc(C[C@H](NC(=O)[C@@H](Cc2ccccc2)NC(=O)[C@@H](Cc2c[nH]c3ccccc23)NC(=O)[C@@H](N)CCN)C(=O)N[C@H](Cc2ccccc2)C(=O)N[C@@H](Cc2cn(Cc3ccccc3)cn2)C(N)=O)cc1 (H-[Dab][dW][dF][Phe(4-Me)][dF][His(τ-Bzl)]-NH2)	1.25 (≈ 1.27 µM)	20 (≈ 20.3 µM)	20 (≈ 20.3 µM)	20 (≈ 20.3 µM)																	
CC[C@H](C)[C@H](NC(=O)[C@H](CC1CCCCC1)NC(=O)[C@H](CC1CCCCC1)NC(=O)[C@@H](N)CCCN)C(=O)N[C@H](Cc1ccccc1)C(=O)N[C@@H](Cc1cn(Cc2ccccc2)cn1)C(N)=O (H-[Orn][Cha][Cha]I[dF][His(τ-Bzl)]-NH2)					Not Active	Not Active	20 (≈ 21.6 µM)	Not Active	Not Active	20 (≈ 21.6 µM)	20 (≈ 21.6 µM)	Not Active	Non-Toxic								
CC[C@H](C)[C@H](NC(=O)[C@H](CC1CCCCC1)NC(=O)[C@@H](Cc1c[nH]c2ccccc12)NC(=O)[C@@H](N)CCCN)C(=O)N[C@@H](Cc1cccc2ccccc12)C(=O)N[C@@H](Cc1cn(Cc2ccccc2)cn1)C(N)=O (H-[Orn][dW][Cha]I[1Nal][His(τ-Bzl)]-NH2)		10 (≈ 9.92 µM)	20 (≈ 19.8 µM)	20 (≈ 19.8 µM)	Not Active	Not Active		Not Active	Not Active			Not Active	Non-Toxic	10 (≈ 9.92 µM)	1.25 (≈ 1.24 µM)	Not Active					
CC(C)[C@@H](NC(=O)[C@H](CC1CCCCC1)NC(=O)[C@@H](Cc1c[nH]c2ccccc12)NC(=O)[C@@H](N)CCCN)C(=O)N[C@H](Cc1ccccc1)C(=O)N[C@@H](Cc1cn(Cc2ccccc2)cn1)C(N)=O (H-[Orn][dW][Cha][dV][dF][His(τ-Bzl)]-NH2)						Not Active	20 (≈ 21.2 µM)	Not Active				Not Active	Non-Toxic	20 (≈ 21.2 µM)	1.25 (≈ 1.32 µM)	Not Active					MIC (Candida albicans [5]; Candida albicans, ATCC 90028): 20 µg/mL (≈ 21.2 µM); MFC (Candida albicans [12]): 20 µg/mL (≈ 21.2 µM); MIC ([7]; Mycobacterium intracellulare, ATCC 23068): 20 µg/mL (≈ 21.2 µM)
Cc1ccc(C[C@H](NC(=O)[C@@H](Cc2ccccc2)NC(=O)[C@@H](Cc2c[nH]c3ccccc23)NC(=O)[C@@H](N)CCCN)C(=O)N[C@H](Cc2ccccc2)C(=O)N[C@@H](Cc2c[nH]cn2)C(N)=O)cc1 (H-[Orn][dW][dF][Phe(4-Me)][dF]H-NH2)	1.25 (≈ 1.37 µM)				Not Active	Not Active		Not Active	Not Active			Not Active	Non-Toxic		1.25 (≈ 1.37 µM)	Not Active	0.8 (≈ 0.879 µM)				IC50 (Pichia kudriavzevii [10]): Not Active; IC50 (Staphylococcus aureus [13]): Not Active; IC50 (Staphylococcus aureus [3]): Not Active
Cc1ccc(C[C@H](NC(=O)[C@@H](Cc2ccccc2)NC(=O)[C@@H](Cc2c[nH]c3ccccc23)NC(=O)[C@@H](N)CCCN)C(=O)N[C@H](Cc2ccccc2)C(=O)N[C@H](Cc2c[nH]cn2)C(N)=O)cc1 (H-[Orn][dW][dF][Phe(4-Me)][dF][dH]-NH2)	1.25 (≈ 1.37 µM)				Not Active	Not Active	10 (≈ 11 µM)	Not Active	Not Active			Not Active	Non-Toxic	10 (≈ 11 µM)	1.25 (≈ 1.37 µM)		0.8 (≈ 0.879 µM)	5.16 (≈ 5.67 µM)	> 20	18 (≈ 19.8 µM)	IC50 (Escherichia coli [8]; [18]): 12.7 µg/mL (≈ 14 µM)
Cc1ccc(C[C@H](NC(=O)[C@@H](Cc2ccccc2)NC(=O)[C@@H](Cc2c[nH]c3ccccc23)NC(=O)[C@@H](N)CCCN)C(=O)N[C@H](Cc2ccccc2)C(=O)N[C@H](CCCN)C(N)=O)cc1 (H-[Orn][dW][dF][Phe(4-Me)][dF][dOrn]-NH2)	1.25 (≈ 1.41 µM)				Not Active	Not Active	20 (≈ 22.5 µM)	Not Active	Not Active			Not Active	Non-Toxic	20 (≈ 22.5 µM)	1.25 (≈ 1.41 µM)		0.67 (≈ 0.755 µM)	9.7 (≈ 10.9 µM)	> 20	> 20	IC50 (Escherichia coli [8]; [18]): > 20 µg/mL
Cc1ccc(C[C@H](NC(=O)[C@@H](Cc2ccccc2)NC(=O)[C@@H](Cc2c[nH]c3ccccc23)NC(=O)[C@@H](N)CCCN)C(=O)N[C@H](Cc2ccccc2)C(=O)N[C@H](CCCNC(=N)N)C(N)=O)cc1 (H-[Orn][dW][dF][Phe(4-Me)][dF][dR]-NH2)	1.25 (≈ 1.35 µM)		20 (≈ 21.5 µM)	20 (≈ 21.5 µM)	Not Active	Not Active	20 (≈ 21.5 µM)	Not Active	Not Active	10 (≈ 10.8 µM)	20 (≈ 21.5 µM)		Non-Toxic	20 (≈ 21.5 µM)	1.25 (≈ 1.35 µM)		0.83 (≈ 0.893 µM)	14 (≈ 15 µM)	> 20	13.5 (≈ 14.5 µM)	IC50 (Escherichia coli [8]; [18]): 4.8 µg/mL (≈ 5.17 µM); IC50 (Pseudomonas aeruginosa; Pseudomonas aeruginosa, ATCC 27853, read-out: IC50): 15.7 µg/mL (≈ 16.9 µM)
Cc1ccc(C[C@H](NC(=O)[C@@H](Cc2ccccc2)NC(=O)[C@@H](Cc2c[nH]c3ccccc23)NC(=O)[C@@H](N)Cc2ccc(N)cc2)C(=O)N[C@H](Cc2ccccc2)C(=O)N[C@@H](Cc2cn(Cc3ccccc3)cn2)C(N)=O)cc1 (H-[Phe(4-NH2)][dW][dF][Phe(4-Me)][dF][His(τ-Bzl)]-NH2)	5 (≈ 4.77 µM)			20 (≈ 19.1 µM)	Not Active	Not Active		Not Active	Not Active			Not Active	Non-Toxic			Not Active					IC50 (Pichia kudriavzevii [10]): Not Active; IC50 (Staphylococcus aureus [13]): Not Active
Cc1ccc(C[C@H](NC(=O)[C@@H](Cc2ccccc2)NC(=O)[C@@H](Cc2c[nH]c3ccccc23)NC(=O)[C@H](N)CCCNC(=N)N)C(=O)N[C@H](Cc2ccccc2)C(=O)N[C@@H](Cc2cn(Cc3ccccc3)cn2)C(N)=O)cc1 (H-[dR][dW][dF][Phe(4-Me)][dF][His(τ-Bzl)]-NH2)	2.5 (≈ 2.4 µM)	20 (≈ 19.2 µM)	20 (≈ 19.2 µM)	20 (≈ 19.2 µM)	Not Active	Not Active	20 (≈ 19.2 µM)	Not Active	Not Active	20 (≈ 19.2 µM)	20 (≈ 19.2 µM)	Not Active	Non-Toxic	20 (≈ 19.2 µM)							MIC (Staphylococcus aureus [13]; Staphylococcus aureus, ATCC 33591): 20 µg/mL (≈ 19.2 µM)
